In publication PMC11955804, “Histidine-rich enantiomeric peptide coacervates enhance antigen sequestration and presentation to T cells” (Chemical Science, 2025):

Test system: CD4+T cells from OT-II mice on BMDCs
Assay: OT-II CD4+ T cell proliferation
Format: cell-based, mouse
Conditions: BMDCs treated with OVA-loaded coacervates 24 h, CTV-labeled OT-II T cells ~66 h, flow cytometry
Method: page 14: parameters across two channels: eGFP and DAPI. […] Cells were incubated at 37°C (protected from light) for 20 min, after which 5× staining volume of EasySep Buffer was added for another 5 min of incubation. The cells were counted again, centrifuged at 300 g for 5 min, resuspended in RPMI-1640 (Gibco 31800- 022) with 10% FBS (R and D Systems […]), 10 mM HEPES (Sigma H0887), 1× MEM NEAA (Gibco 11140-050), 1 mM sodium pyruvate (Gibco 11360-070), 1× pen-strep glutamine (Gibco 10378-016), and 55 μM β-mercaptoethanol (Gibco 21985-023) added fresh, and then plated onto treated BMDCs. The plates were incubated for ~66 h, after which supernatants were collected for Mouse Adaptive Immune CodePlex Secretome analyses (Bruker Cellular Analysis, Inc), and cells were collected for flow cytometry studies. Flow cytometry Total cells from the spleen and lymph nodes of OT-I/OT-II mice were washed with FACS […] staining. […] Data were analyzed with FlowJo version 10. Proliferation was quantified as the percentage of daughter cells out of single, live, CD4+ or CD8+T cells, gated as having a lower CTV fluorescence intensity than the peak of highest fluorescence (undivided). […] Data are expressed as mean ± S.E.M. and statistical analysis was performed using a one-way or two-way ANOVA with Tukey/Sidak's/Dunnett's multiple comparison test. *p ≤ 0.05, **p ≤ 0.01, ***p ≤ 0.001, ****p ≤ 0.0001. […]

(GHGLY)4 [GL 20]
CD4+T cell proliferation: slightly higher
